In US8912120B2, “Herbicidal compositions comprising 4-amino-3-chloro-5-fluoro-6-(4-chloro-2-fluoro-3-methoxyphenyl) pyridine-2-carboxylic acid or a derivative thereof and synthetic auxin herbicides” (Dow AgroSciences, LLC., priority 2012, dated 2014):
Where a name gives a salt, the structure may show the parent alone.

What was measured:
LEFCH = experiment: Example II: in-water applied herbicidal mixtures, transplanted paddy rice, LEFCH; type: in vivo, Leptochloa chinensis (Chinese sprangletop); details: for Visual Weed Control (%) - 21 DAA LEFCH Obs: in-water application; for Visual Weed Control (%) Obs: 22 DAA
Description: (§1) The prepared mud was dispensed in 365 mL aliquots into 16-ounce (oz.) non-perforated plastic pots with a surface area of 86.59 square centimeters (cm^2) leaving a headspace of 3 centimeters (cm) in each pot Mud was allowed to dry overnight prior to planting or transplanting. Rice seeds were planted in Sun Gro MetroMix® 306 planting mixture, which typically has a pH of 6.0 to 6.8 and an organic matter content of about 30 percent, in plastic plug trays. Seedlings at the second or third leaf stage of growth were transplanted into 840 mL of mud contained in 32-oz. non-perforated plastic pots with a surface area of 86.59 cm^2 4 days prior to herbicide application. […] Nutrients were added as Osmocote® (19:6:12, N:P:K^+ minor nutrients) at 2 g per 16-oz. pot and 4 g per 32-oz. pot.
(§2) Applications were made by injecting with a pipetter appropriate amounts of the application solutions, individually and sequentially, into the aqueous layer of the paddy. Control plants were treated in the same manner with the solvent blank. Applications were made so that all treated plant material received the same concentrations of acetone and crop oil concentrate.

PANDI = experiment: Example III: postemergence foliar-applied herbicidal mixtures, row crop weeds, PANDI; type: in vivo, Panicum dichotomiflorum (fall panicum); details: 16 DAA
Description: (§3) The plants were grown for 7-31 days (d) in a greenhouse with an approximate 15 hour (h) photoperiod which was maintained at about 23-29° C. during the day and 22-28° C. during the night.

CYPRO = experiment: Example II: in-water applied herbicidal mixtures, weed control in transplanted paddy rice (greenhouse), CYPRO; type: in vivo, Cyperus rotundus (purple nutsedge); details: for Visual Weed Control (%) Obs: 22 DAA
Description: as §1, §2

ECHCG = experiment: Example II: in-water applied herbicidal mixtures, transplanted paddy rice, ECHCG; type: in vivo, Echinochloa crus-galli (barnyardgrass); details: for Visual Weed Control (%) - 21 DAA ECHCG Obs: in-water application; for Visual Weed Control (%) Obs: 22 DAA
Description: as §1, §2

SONAR = experiment: Example V: postemergence herbicidal activity of mixtures in forage crops, SONAR; type: in vivo, Sonchus arvensis (field sowthistle); details: alone, foliar, approximately 21 days
Description: (§4) Seeds or root cuttings of the desired test plant species were planted in Sun Gro MetroMix® 306 planting mixture, which typically has a pH of 6.0 to 6.8 and an organic matter content of about 30 percent, in plastic pots with a surface area of 126.6 square centimeters (cm^2). […] The plants were grown for 14-60 days in a greenhouse with an approximate 14 hour photoperiod which was maintained at approximately 28° C. during the day and 24° C. during the night.
(§5) Spray solutions of the second herbicide or experimental compound mixtures were prepared by adding the stock solutions to the appropriate amount of dilution solution to form 12 mL spray solution with active ingredients in two-way combinations.

CENMA = experiment: Example V: postemergence herbicidal activity of mixtures in forage crops, CENMA; type: in vivo, Centaurea maculosa (spotted knapweed); details: alone, foliar, approximately 21 days
Description: as §4, §5

ECHOR = experiment: Example II: in-water applied herbicidal mixtures, transplanted paddy rice, ECHOR; type: in vivo, Echinochloa oryzoides (early watergrass)
Description: as §1, §2

PANMI = experiment: Example III: postemergence foliar-applied herbicidal mixtures, row crop weeds, PANMI; type: in vivo, Panicum miliaceum (wild-proso millet); details: 16 DAA
Description: as §3

SCPJU = experiment: Example II: in-water applied herbicidal mixtures, transplanted paddy rice, SCPJU; type: in vivo, Schoenoplectus juncoides (Japanese bulrush); details: for Visual Weed Control (%) - 21 DAA SCPJU Obs: in-water application; for Visual Weed Control (%) Obs: 22 DAA
Description: as §1, §2

SINAR = experiment: Example V: postemergence herbicidal activity of mixtures in forage crops, SINAR; type: in vivo, Sinapis arvensis (wild mustard); details: alone, foliar, approximately 21 days
Description: as §4, §5

ELEIN = experiment: Example III: postemergence foliar-applied herbicidal mixtures, weeds common to row crops such as corn and soybeans (greenhouse), ELEIN; type: in vivo, Eleusine indica (goosegrass); details: 14 DAA
Description: as §3

BRSNN = experiment: Example IV: postemergence foliar-applied herbicidal mixtures, cereal crops, BRSNN; type: in vivo, Brassica napus (volunteer canola); details: alone, 3 gai/ha, foliar, 20-22 days
Description: as §4, with “Seeds” for “Seeds or root cuttings”, “MetroMix” for “MetroMix®”, “103.2” for “126.6”, “7-36” for “14-60”, “about 18°” for “approximately 28°”, “17°” for “24°”
(§6) Spray solutions of the second cereal herbicide and experimental compound mixtures were prepared by adding the stock solutions to the appropriate amount of dilution solution to form 12 mL spray solution with active ingredients in two- and three-way combinations.

CIRAR = experiment: Example IV: postemergence foliar-applied herbicidal mixtures, cereal crops, CIRAR; type: in vivo, Cirsium arvense (Canada thistle); details: alone, 20-22 days
Description: as §4, with “Seeds” for “Seeds or root cuttings”, “MetroMix” for “MetroMix®”, “103.2” for “126.6”, “7-36” for “14-60”, “about 18°” for “approximately 28°”, “17°” for “24°”
as §6

POLCO = experiment: Example IV: postemergence foliar-applied herbicidal mixtures, cereal crops, POLCO; type: in vivo, Polygonum convolvulus (wild buckwheat); details: alone, foliar, 20-22 days
Description: as §4, with “Seeds” for “Seeds or root cuttings”, “MetroMix” for “MetroMix®”, “103.2” for “126.6”, “7-36” for “14-60”, “about 18°” for “approximately 28°”, “17°” for “24°”
as §6

AMARE = experiment: Example IV: postemergence foliar-applied herbicidal mixtures, weed control in cereal crops in the greenhouse, AMARE; type: in vivo, Amaranthus retroflexus (redroot pigweed); details: alone, 35 gai/ha, 20-22 days
Description: as §4, with “Seeds” for “Seeds or root cuttings”, “MetroMix” for “MetroMix®”, “103.2” for “126.6”, “7-36” for “14-60”, “about 18°” for “approximately 28°”, “17°” for “24°”
as §6

VIOTR = experiment: Example IV: postemergence foliar-applied herbicidal mixtures, cereal crops, VIOTR; type: in vivo, Viola tricolor (wild pansy); details: alone, foliar, 20-22 days
Description: as §4, with “Seeds” for “Seeds or root cuttings”, “MetroMix” for “MetroMix®”, “103.2” for “126.6”, “7-36” for “14-60”, “about 18°” for “approximately 28°”, “17°” for “24°”
as §6

STEME = experiment: Example IV: postemergence foliar-applied herbicidal mixtures, cereal crops, STEME; type: in vivo, Stellaria media (common chickweed); details: alone, 10 gai/ha, 20-22 days
Description: as §4, with “Seeds” for “Seeds or root cuttings”, “MetroMix” for “MetroMix®”, “103.2” for “126.6”, “7-36” for “14-60”, “about 18°” for “approximately 28°”, “17°” for “24°”
as §6

FIMMI = experiment: Example II: in-water applied herbicidal mixtures, transplanted paddy rice, FIMMI; type: in vivo, Fimbristylis miliacea (globe fringerush); details: 22 DAA
Description: as §1, §2

[1] = 280 gae/ha, in-water application

SMILES: O=C(O)COc1ccc(Cl)cc1Cl [2,4-D DMA Salt, 2-(2,4-dichlorophenoxy)acetic acid with N-methylmethanamine, reference compound]
- Visual Weed Control (%) - 21 DAA LEFCH Obs (LEFCH; 140 gae/ha): 0%
- Visual Weed Control (%) - 21 DAA LEFCH Obs (LEFCH; 280 gae/ha): 60%
- Visual Weed Control (%) Obs (PANDI; 105 gae/ha): 0%
- Visual Weed Control (%) Obs (PANDI; 210 gae/ha): 0%
- Visual Weed Control (%) - 21 DAA CYPRO Obs (CYPRO; [1]): 0%
- Visual Weed Control (%) - 21 DAA ECHCG Obs (ECHCG; 140 gae/ha): 0%
- Visual Weed Control (%) - 21 DAA ECHCG Obs (ECHCG; 280 gae/ha): 0%
- SONAR Obs (observed value) (SONAR; 35 gae/ha): 20%
- SONAR Obs (observed value) (SONAR; 70 gae/ha): 85%
- CENMA Obs (observed value) (CENMA; 35 gae/ha): 30%
- CENMA Obs (observed value) (CENMA; 70 gae/ha): 50%
- Visual Weed Control (%) - 21 DAA ECHOR Obs (ECHOR; [1]): 15%
- Visual Weed Control (%) Obs (PANMI; 52.5 gae/ha): 0%
- Visual Weed Control (%) Obs (PANMI; 105 gae/ha): 10%
- Visual Weed Control (%) - 21 DAA SCPJU Obs (SCPJU; 140 gae/ha): 0%
- Visual Weed Control (%) - 21 DAA SCPJU Obs (SCPJU; 280 gae/ha): 0%
- SINAR Obs (observed value) (SINAR; 35 gae/ha): 35%
- SINAR Obs (observed value) (SINAR; 70 gae/ha): 80%
- Visual Weed Control (%) Obs (ELEIN; 52.5 gae/ha): 0%
- Visual Weed Control (%) Obs (ELEIN; 105 gae/ha): 0%

SMILES: Nc1cc(Cl)nc(C(=O)O)c1Cl [Aminopyralid, 4-amino-3,6-dichloro-2-pyridinecarboxylic acid]
- BRSNN Ob (observed value) (BRSNN): 0%
- CIRAR Ob (observed value) (CIRAR; 3 gai/ha): 13%
- POLCO Ob (observed value) (POLCO; 3 gai/ha): 3%

SMILES: Nc1c(Cl)c(F)nc(OCC(=O)O)c1Cl [Fluroxypyr, 2-[(4-amino-3,5-dichloro-6-fluoro-2-pyridinyl)oxy]acetic acid]
- AMARE Ob (observed value) (AMARE): 33%
- VIOTR Ob (observed value) (VIOTR; 35 gai/ha): 10%
- CIRAR Ob (observed value) (CIRAR; 35 gai/ha): 3%
- POLCO Ob (observed value) (POLCO; 35 gai/ha): 23%

SMILES: Nc1c(Cl)c(Cl)nc(C(=O)O)c1Cl [Picloram, 4-amino-3,5,6-trichloro-2-pyridinecarboxylic acid]
- STEME Ob (observed value) (STEME): 0%
- VIOTR Ob (observed value) (VIOTR; 10 gai/ha): 3%
- POLCO Ob (observed value) (POLCO; 10 gai/ha): 40%

SMILES: O=C(O)COc1nc(Cl)c(Cl)cc1Cl [Triclopyr Choline Salt, 2-hydroxy-N,N,N-trimethylethanaminium 2-((3,5,6-trichloropyridin-2-yl)oxy)acetate, reference compound]
- Visual Weed Control (%) Obs (LEFCH; 70 gae/ha): 0%
- Visual Weed Control (%) Obs (LEFCH; 140 gae/ha): 0%
- Visual Weed Control (%) Obs (CYPRO; 70 gae/ha): 0%
- Visual Weed Control (%) Obs (CYPRO; 140 gae/ha): 0%
- Visual Weed Control (%) Obs (ECHCG; 70 gae/ha): 15%
- Visual Weed Control (%) Obs (ECHCG; 140 gae/ha): 20%
- pest or weed control at 70 g/ha (ECHOR; Echinochloa oryzoides, 528 h, 22 DAA, 70 gae/ha, read-out: Visual Weed Control (%) Obs): 10%
- pest or weed control at 140 g/ha (ECHOR; Echinochloa oryzoides, 528 h, 22 DAA, 140 gae/ha, read-out: Visual Weed Control (%) Obs): 15%
- Visual Weed Control (%) Obs (SCPJU; 70 gae/ha): 15%
- Visual Weed Control (%) Obs (SCPJU; 140 gae/ha): 50%
- Visual Weed Control (%) Obs (FIMMI; 70 gae/ha): 15%
- Visual Weed Control (%) Obs (FIMMI; 140 gae/ha): 80%
